How the values were obtained:
[1] = molecular target: Cyclin-dependent kinase 2/cyclin E (Homo sapiens) (UniProt P24864+P24941+O96020); test: Inhibition of CDK2/Cyclin E (unknown origin) at 500 nM; type: protein-complex assay
HCT-116 = test: Antiproliferative activity against human HCT-116 cells assessed as inhibition of cell proliferation; type: functional, cell-based
MV4-11 = test: Antiproliferative activity against human MV4-11 cells assessed as inhibition of cell proliferation; type: functional, cell-based
[2] = molecular target: Cyclin-dependent kinase 2/cyclin E (Homo sapiens, UniProt P24941); test: Inhibition of CDK2/Cyclin E (unknown origin); type: protein-complex assay
[3] = molecular target: Cyclin-dependent kinase 4/cyclin D1 (Homo sapiens, UniProt P11802); test: Inhibition of CDK4/Cyclin D1 (unknown origin); type: protein-complex assay
Cyclin-dependent kinase 4/cyclin D1, sequence (P11802 whole entry): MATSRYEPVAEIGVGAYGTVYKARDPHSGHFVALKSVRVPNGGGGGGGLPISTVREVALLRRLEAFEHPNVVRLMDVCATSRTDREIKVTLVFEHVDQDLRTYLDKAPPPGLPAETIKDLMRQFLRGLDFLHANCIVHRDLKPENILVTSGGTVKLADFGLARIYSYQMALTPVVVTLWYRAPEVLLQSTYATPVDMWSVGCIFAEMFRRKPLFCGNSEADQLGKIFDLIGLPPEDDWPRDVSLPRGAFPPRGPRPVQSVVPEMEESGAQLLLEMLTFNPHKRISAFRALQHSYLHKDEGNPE
Cyclin-dependent kinase 4/cyclin D1, sequence (P24385 whole entry, further chain): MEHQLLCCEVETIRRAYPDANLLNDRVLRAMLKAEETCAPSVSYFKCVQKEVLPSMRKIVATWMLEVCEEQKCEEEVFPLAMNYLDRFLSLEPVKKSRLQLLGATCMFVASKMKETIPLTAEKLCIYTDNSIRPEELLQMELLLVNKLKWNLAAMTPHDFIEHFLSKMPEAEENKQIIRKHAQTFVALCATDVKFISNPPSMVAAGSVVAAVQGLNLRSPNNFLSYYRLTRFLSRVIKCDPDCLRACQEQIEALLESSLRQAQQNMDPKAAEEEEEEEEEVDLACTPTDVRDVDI

CDK6/cyclin D3 = CDK6/cyclin D3 (Homo sapiens, UniProt Q00534); test: Inhibition of CDK6/Cyclin D3 (unknown origin); type: protein-complex assay
CDK6/cyclin D3, sequence (P30281 whole entry): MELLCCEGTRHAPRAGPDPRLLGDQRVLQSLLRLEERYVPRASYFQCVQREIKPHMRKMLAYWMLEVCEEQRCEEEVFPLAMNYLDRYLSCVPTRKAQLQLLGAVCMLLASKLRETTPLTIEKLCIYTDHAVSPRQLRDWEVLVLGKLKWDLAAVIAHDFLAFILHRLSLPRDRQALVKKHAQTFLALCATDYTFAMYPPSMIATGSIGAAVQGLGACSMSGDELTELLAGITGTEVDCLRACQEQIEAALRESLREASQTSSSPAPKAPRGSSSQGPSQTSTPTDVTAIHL
CDK6/cyclin D3, sequence (Q00534 whole entry): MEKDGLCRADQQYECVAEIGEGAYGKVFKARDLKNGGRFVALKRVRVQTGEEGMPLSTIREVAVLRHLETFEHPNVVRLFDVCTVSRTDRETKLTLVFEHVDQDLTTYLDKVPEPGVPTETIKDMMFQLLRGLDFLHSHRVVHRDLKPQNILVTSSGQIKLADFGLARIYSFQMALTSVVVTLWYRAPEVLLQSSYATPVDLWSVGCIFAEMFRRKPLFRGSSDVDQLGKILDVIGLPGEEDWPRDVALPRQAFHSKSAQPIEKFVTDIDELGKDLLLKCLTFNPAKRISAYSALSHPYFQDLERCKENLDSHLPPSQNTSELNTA

Homo sapiens [4] = species on record: Homo sapiens; test: Selectivity ratio of IC50 for inhibition of CDK4/Cyclin D1 (unknown origin) to IC50 for inhibition of CDK2/Cyclin E (unknown origin)
Homo sapiens [5] = species on record: Homo sapiens; test: Selectivity ratio of IC50 for inhibition of CDK6/Cyclin D3 (unknown origin) to IC50 for inhibition of CDK2/Cyclin E (unknown origin)

Structure (SMILES) | inhibition [1] | IC50 (HCT-116) | IC50 (MV4-11) | also measured
CCC(CC)n1c(=O)c(O)nc2cnc(NC3CCN(S(C)(=O)=O)CC3)nc21 | 39.2% |  |  | 
C[C@@]1(O)CCC[C@H]1n1c(=O)c(C(F)F)cc2cnc(NC3CCN(S(C)(=O)=O)CC3)nc21 [EBVACICLIB] | 98.8% | 0.22 µM | 0.57 µM | 
CS(=O)(=O)N1CCC(Nc2nc3cnc(NCC(F)F)nc3n(C3CCCC3)c2=O)CC1 | 35.1% |  |  | 
CS(=O)(=O)N1CCC(Nc2ncc3c(n2)n(C2CCCC2)c(=O)c2nncn23)CC1 | 14.2% |  |  | 
CS(=O)(=O)c1ccc(Nc2ncc3c(n2)n(C2CCCC2)c(=O)c2nncn23)cc1 | 1.7% |  |  | 
CNc1nc2cnc(NC3CCN(S(=O)(=O)C4CC4)CC3)nc2n(C2CCCC2)c1=O | 9.2% |  |  | 
CN(C)S(=O)(=O)N1CCC(Nc2nc3cnc(NN)nc3n(C3CCCC3)c2=O)CC1 | 27.1% |  |  | 
CCC(C)n1c(=O)c(OC)nc2cnc(NC3CCN(S(C)(=O)=O)CC3)nc21 (stereo not given) | 70.2% | 6.34 µM | 7.81 µM | IC50 [2]: 0.5 µM
CS(=O)(=O)c1ccc(Nc2ncc3nc(NN)c(=O)n(C4CCCC4)c3n2)cc1 | 67.3% | 3.43 µM | 1.17 µM | IC50 [2]: 0.92 µM
CCC(C)n1c(=O)c(O)nc2cnc(NC3CCN(S(C)(=O)=O)CC3)nc21 (stereo not given) | 23.4% |  |  | 
COc1nc2cnc(NC3CCN(S(=O)(=O)N(C)C)CC3)nc2n(C2CCCC2)c1=O | 36.1% |  |  | 
CN1CCN(c2ccc(Nc3ncc4nc(O)c(=O)n(C5CCCC5)c4n3)cc2)CC1 | 48.3% | 6.23 µM | 4.92 µM | IC50 [2]: 1.6 µM
CS(=O)(=O)N1CCC(Nc2ncc3nc(NCC(F)F)c(=O)n(C4CCCC4)c3n2)CC1 | 51.2% |  |  | 
COc1nc2cnc(NC3CCN(S(C)(=O)=O)CC3)nc2n(C2CCOCC2)c1=O | 45.8% | 5.01 µM | 4.26 µM | IC50 [2]: 1.7 µM
CS(=O)(=O)N1CCC(Nc2nc3cnc(NN)nc3n(C3CCCC3)c2=O)CC1 | 26.8% |  |  | 
CCNc1ncc2nc(NC3CCN(S(=O)(=O)N(C)C)CC3)c(=O)n(C3CCCC3)c2n1 | 43.2% |  |  | 
CS(=O)(=O)c1ccc(Nc2ncc3nc(O)c(=O)n(C4CCCC4)c3n2)cc1 | 30% |  |  | 
CCC(CC)n1c(=O)c(OC)nc2cnc(NC3CCN(S(C)(=O)=O)CC3)nc21 | 79.6% | 5.5 µM | 4.88 µM | IC50 [2]: 0.35 µM
CN(C)S(=O)(=O)N1CCC(Nc2nc3cnc(NCC(F)F)nc3n(C3CCCC3)c2=O)CC1 | 38.2% |  |  | 
CS(=O)(=O)N1CCC(Nc2ncc3nc(O)c(=O)n([C@@H]4CCC[C@H]4O)c3n2)CC1 | 43% |  |  | 

More lines, main results first:

inhibition [1] | IC50 (HCT-116) | IC50 (MV4-11) | Structure (SMILES) | also measured
20.3% |  |  | CCNc1nc2cnc(NC3CCN(S(C)(=O)=O)CC3)nc2n(C2CCCC2)c1=O | 
65.4% | 9.32 µM | 9.15 µM | CCS(=O)(=O)N1CCC(Nc2ncc3nc(O)c(=O)n(C4CCCC4)c3n2)CC1 | IC50 [2]: 1.04 µM
82.4% | 1.93 µM | 2.57 µM | COc1nc2cnc(NC3CCN(S(C)(=O)=O)CC3)nc2n(C2CCCC2)c1=O | IC50 [2]: 0.16 µM
9.3% |  |  | CS(=O)(=O)N1CCC(Nc2ncc3nc(O)c(=O)n(C4CCOCC4)c3n2)CC1 | 
4.1% |  |  | CS(=O)(=O)N1CCC(Nc2ncc3nc(O)c(=O)n(C4CCNC4)c3n2)CC1 (stereo not given) | 
15.8% |  |  | CN(C)S(=O)(=O)N1CCC(Nc2ncc3nc(O)c(=O)n(C4CCCC4)c3n2)CC1 | 
45.4% |  |  | CCS(=O)(=O)N1CCC(Nc2ncc3nc(NC)c(=O)n(C4CCCC4)c3n2)CC1 | 
20.1% |  |  | O=c1c(O)nc2cnc(NC3CCN(S(=O)(=O)C4CC4)CC3)nc2n1C1CCCC1 | 
62.2% | 10.6 µM | 13.9 µM | CS(=O)(=O)N1CCC(Nc2ncc3nc(O)c(=O)n(C4CCCC4)c3n2)CC1 | IC50 [2]: 1.22 µM
46.2% |  |  | CNc1nc2cnc(NC3CCN(S(C)(=O)=O)CC3)nc2n(C2CCCC2)c1=O | 
34.4% |  |  | CCNc1ncc2nc(NC3CCN(S(C)(=O)=O)CC3)c(=O)n(C3CCCC3)c2n1 | 
85.6% | 1.62 µM | 1.95 µM | CS(=O)(=O)N1CCC(Nc2ncc3nc(NN)c(=O)n(C4CCCC4)c3n2)CC1 | IC50 [2]: 0.13 µM; IC50 [3]: 0.34 µM; IC50 (CDK6/cyclin D3): 0.46 µM; Ratio IC50 (Homo sapiens [4]): 3; Ratio IC50 (Homo sapiens [5]): 4
